Data taken from the C3SDB collision cross section collection.
Where “and” joins values, the source holds several entries; their conditions need not be identical. Equal values may be shown once.

Assays:
[1] = instrument: DT, stepped-field
[2] = [M+H]+; instrument: DT; single field
[3] = instrument: DT, single field, calibrated with Agilent tune mix (Agilent)
[4] = [M+H]+; instrument: TW; calibrated with phosphatidylcholines (ESI+) and phosphatidylethanolamines (ESI-)
[5] = [M+Na]+; instrument: DT; stepped-field

CCCCCC/C=C\CCCCCCCC(=O)OC[C@@H](O)COP(=O)(O)O [LPA(16:1)]
collision cross section (N2) ([1]; [M-H]-): 191.1 Å²

CCCCCCCCCCCCCCCCCC(=O)O[C@H](CO)COP(=O)(O)O [LPA(18:0)]
collision cross section (N2) ([1]; [M-H]-): 206.2 Å²

CCCCCCCCCCCCCCCCCC(=O)OC[C@@H](O)COP(=O)(O)OC[C@@H](O)CO [LPG(18:0)]
collision cross section (N2) ([1]; [M-H]-): 221.9 Å²

CCCCCCCC/C=C\CCCCCCCC(=O)OC[C@@H](O)COP(=O)(O)O[C@H]1C(O)C(O)C(O)[C@@H](O)C1O (stereo not given in full) [LPI(18:1)]
collision cross section (N2) ([1]; [M-H]-): 233.4 Å²

CCCCC/C=C\C/C=C\CCCCCCCCCC(=O)O[C@H](COC(=O)CCCCCCCCCCC)COP(=O)(O)O [PA(16:1/16:1)]
collision cross section (N2) ([1]; [M-H]-): 250 Å²

CCCCC/C=C\C/C=C\CCCCCCCCCCCC(=O)O[C@H](COC(=O)CCCCCCCCCCC)COP(=O)(O)O [PA(16:1/18:1)]
collision cross section (N2) ([1]; [M-H]-): 257 Å²

CCCCCCC/C=C\CCCCCCCC(=O)O[C@H](COC(=O)CCCCCCCCCCCC)COP(=O)([O-])OCC[N+](C)(C)C [PC(14:0/16:1)]
collision cross section (N2) ([1]; [M+H]+): 283.6 Å²

CCCCCCCCCCCCCCCC(=O)OC[C@H](COP(=O)([O-])OCC[N+](C)(C)C)OC(=O)CCCCCCCCCCCCC [PC(30:0)]
collision cross section (N2) [2]: 276.5 Å² and 277.83 Å² | collision cross section (N2) ([3]; [M+H]+): 276.8 Å²

CCCCCCCCCCCCCCCCCCCC(=O)O[C@H](COC(=O)CCCCCCCCCCC)COP(=O)([O-])OCC[N+](C)(C)C [PC(32:0)]
collision cross section (N2) [4]: 281 Å² | collision cross section (N2) [2]: 282.65 Å² and 284.23 Å² | collision cross section (N2) ([3]; [M+H]+): 283.4 Å²

CCCCC/C=C\C/C=C\C/C=C\CCCCC(=O)O[C@H](COCCCCCCCCCCCCCCCC)COP(=O)([O-])OCC[N+](C)(C)C [PC(o34:3)]
collision cross section (N2) ([1]; [M+H]+): 294 Å²

CCCCC/C=C\C/C=C\C/C=C\C/C=C\CCCC(=O)O[C@H](COCCCCCCCCCCCCCCCC)COP(=O)([O-])OCC[N+](C)(C)C [PC(o36:4)]
collision cross section (N2) ([1]; [M+H]+): 297.2 Å²

CCCC/C=C\CCCCCCCCCC(=O)OC[C@H](COP(=O)(O)OCCN)OC(=O)CCCCCCCCC/C=C\CCCC [PE(16:1/16:1)]
collision cross section (N2) ([1]; [M+H]+): 276.6 Å²

CCCC/C=C\CCCCCCCCCCCC(=O)O[C@H](COC(=O)CCCCCCCCCCCCCCCCCCC)COP(=O)(O)OCCN [PE(38:1)]
collision cross section (N2) ([1]; [M+H]+): 299.8 Å²

CCCCC/C=C\C/C=C\CCCCCCCCCCCC(=O)O[C@H](COC(=O)CCCCCCCCCCC)COP(=O)(O)OC[C@@H](O)CO [PG(16:1/18:1)]
collision cross section (N2) ([1]; [M-H]-): 274 Å² and 273.8 Å² and 274.3 Å²

CCCCC/C=C\C/C=C\CCCCCCCCCCCC(=O)O[C@H](COC(=O)CCCCCCCCCCCCCC)COP(=O)(O)OC[C@@H](O)CO [PG(37:2)]
collision cross section (N2) ([1]; [M-H]-): 285.5 Å²

CCCCCCCCCC/C=C\CCCCCCCCCC(=O)O[C@H](COC(=O)CCCCCCCCCCCCC)COP(=O)(O)O[C@H]1C(O)C(O)C(O)[C@@H](O)C1O (stereo not given in full) [PI(18:0/18:1)]
collision cross section (N2) ([1]; [M-H]-): 297.5 Å² and 297.7 Å²

CCCCCCCCC/C=C\CCCCCCCC(=O)O[C@H](COC(=O)CCCCCCCCCCCC)COP(=O)(O)OC[C@H](N)C(=O)O [PS(16:0/16:1)]
collision cross section (N2) ([1]; [M-H]-): 272.6 Å²

CCCCCCCC/C=C\CCCCCCCC(=O)O[C@H](COC(=O)CCCCCCCCCCCCCCC)COP(=O)(O)OC[C@H](N)C(=O)O [PS(16:0/18:1)]
collision cross section (N2) ([1]; [M-H]-): 278.8 Å²

CCCC/C=C\CCCCCCCC(=O)OC[C@H](COP(=O)(O)OC[C@H](N)C(=O)O)OC(=O)CCCCCCC/C=C\CCCCCCCC [PS(16:1/16:1)]
collision cross section (N2) ([1]; [M-H]-): 270.6 Å²

CCCCCC/C=C\CCCCCCCC(=O)OC[C@H](COP(=O)(O)OC[C@H](N)C(=O)O)OC(=O)CCCCCCCCC/C=C\CCCCCCCCCC [PS(38:2)]
collision cross section (N2) ([1]; [M-H]-): 294.3 Å²

CCCCC/C=C\C/C=C\CCCCCCCCCCCC(=O)O[C@H](COC(=O)CCCCCCCCCCCCCCCCC)COP(=O)(O)OC[C@H](N)C(=O)O [PS(40:2)]
collision cross section (N2) ([1]; [M-H]-): 301 Å²

CCCCCCCCCCCCC=CC[C@@H](O)[C@H](COP(=O)([O-])OCC[N+](C)(C)C)NC(=O)CCCCCCCCCCCCC [SM(32:1)]
collision cross section (N2) [2]: 275.46 Å² | collision cross section (N2) ([3]; [M+H]+): 276.6 Å²

CCCCCCCCCCCCC=CC[C@@H](O)[C@H](COP(=O)([O-])OCC[N+](C)(C)C)NC(=O)CCCCCCCCCCCCCCC [SM(34:1)]
collision cross section (N2) [2]: 281.13 Å² | collision cross section (N2) [5]: 285.1 Å² | collision cross section (N2) ([3]; [M+HCOO]-): 280.9 Å² | collision cross section (N2) ([3]; [M+H]+): 283.9 Å²

CCCCCCCCCCCCC=CC[C@@H](O)[C@H](COP(=O)([O-])OCC[N+](C)(C)C)NC(=O)CCCCCCCCCCCCCCCCC [SM(36:1)]
collision cross section (N2) [2]: 286.91 Å² | collision cross section (N2) [5]: 292.4 Å² | collision cross section (N2) ([3]; [M+HCOO]-): 286.4 Å² | collision cross section (N2) ([3]; [M+H]+): 289.1 Å² | collision cross section (N2) ([3]; [M+Na]+): 290 Å²
